Data as given in PMC6384730, “Systematic Identification of Thiosemicarbazides for Inhibition of Toxoplasma gondii Growth In Vitro” (Molecules, 2019).
Values after ≈ are worked out from the molar mass of the structure shown. Values joined by “and” are separate entries in the source; they are usually repeats but may differ in a detail not shown here. Equal entries are not always repeated. Where two headings read alike, the source gives them in different places.

What was measured:
Toxoplasma gondii = test system: Toxoplasma gondii; set-up: method as in PMID 25010466; conditions: previously reported; cited from earlier work
L929 cells = experiment: MTT cell viability (cytotoxicity) assay on L929 cells; type: cell-based, mouse; conditions: L929 cells, 24 h exposure
Description: (§1) Cells were trypsinized twice a week, and seeded at density 1 × 10^6 per T25 cell culture flask, and incubated for 24-48 h at 37 °C and 10% CO2 to achieve a confluent monolayer. […] The final concentration of DMSO in compounds dilutions was not higher than 1.00%. […] Dilution of the all compounds 2-22 and drug were freshly prepared before the cells were exposed. […] The MTT assay was used according to international standards: ISO 10993-5:2009(E), Biological evaluation of medical devices, Part 5: Tests for in vitro cytotoxicity. […] Afterward, the culture medium in the plates was replaced by 100 μL of compounds and sulfadiazine suspension and the cells were exposed for 24 h. Then, 1 mg/mL of MTT solution in RPMI 1640 without phenol red was prepared and 50 μL of the solution was added to each well and incubated at 37 °C, 10% CO2 for 2 h. Mitochondrial dehydrogenases of viable cells reduced the yellowish water-soluble MTT to water-insoluble formazan crystals, which were solubilized with dimethyl sulfoxide (DMSO). The cell culture medium was aspirated cautiously, after which 150 μL DMSO was added to each well, the plates were gently mixed, then 25 μL 0.1 M glycine buffer (pH = 10.5) (Sigma) was added. Optical density was read on the ELISA reader (Multiskan EX, Labsystems, Vienna, VA, USA) at 570 nm. The results were expressed as the percentage of viability compared to untreated cells. All experiments were performed in triplicate. Moreover, cells were treated with 4.0-0.03% concentration of DMSO as a compounds solvent (data not shown).

[1] = as above; type: cell-based, mouse; conditions: mouse, L929 mouse fibroblast cells, 24 h, % of untreated cells; for viability at 24 h, 62.5 µg/mL: 62.50 µg/mL
Description: as §1

T. gondii RH tachyzoites = experiment: Influence on T. gondii proliferation ([3H]uracil incorporation) in infected Vero cells; type: cell-based, Toxoplasma gondii; conditions: Toxoplasma gondii, Vero
Description: Vero cell line (African green monkey kidney) (ATCC® CCL-81™) were maintained in EMEM (EMEM/10%HIFBS/P/S) (Eagle’s Minimum Essential Medium—ATCC® 30-2003™) culture medium supplemented with 10% HIFBS (Heat-Inactivated (1 h in 56°C) Fetal Bovine Serum—ATCC), 100 U/mL penicillin, 100 μg/mL streptomycin. The cell line was trypsinized (using Trypsin-EDTA Solution, 1X ATCC® 30-2101™) twice a week, and seeded at density 1 × 10^6 per T25 cell culture flask (Falcon), and incubated for 24–48 h at 37 °C and 5 CO2 to achieve a confluent monolayer. The highly virulent RH strain of Toxoplasma gondii, haplogroup I (ATCC® PRA-310™) were maintained as tachyzoites according to the ATCC product sheet, in DMEM (Dulbecco’s Modified Eagle’s Medium—ATCC® 30-2002™) (DMEM/3%HIFBS/P/S—parasite culture medium) under condition 37 °C and 5 CO2 and passage twice per week.
The Vero cells were seeded on 96-well plates (1 × 10^5 cells/100 µL/well) in EMEM/10%HIFBS/P/S. After 24 h of incubation medium was removed and then T. gondii RH tachyzoites were added to the cell monolayers at density 1 × 10^5 cells/100 µL/well in DMEM/3%HIFBS/P/S. One hour later different compounds and sulfadiazine dilutions (100 µL/well) in parasite culture medium were added to the cell monolayers with T. gondii. After subsequent 24 h of incubation 1 µCi/well [5,6-^3H] uracil (Moravek Biochemicals Inc., Brea, CA, USA) was applied to each microculture for further 72 h. The amount of the isotope incorporated into the parasite nucleic acid pool, corresponding to the parasite growth, was measured by liquid scintillation counting using 1450 Microbeta Plus Liquid Scintillation Counter (Wallac Oy, Turku, Finland). The results were expressed as counts per minute (CPM) and transformed to the percentage of viability compared to untreated cells. All experiments were performed in triplicate.

[2] = RH tachyzoites in Vero cells, [3H]uracil incorporation, highest concentration tested 125 µg/mL, read-out: IC50 (50% inhibition of T. gondii proliferation in vitro)
[3] = IC50 greater than 125 µg/mL (highest concentration tested), calculated by extrapolation of the curves (GraphPad Prism), read-out: IC50 (50% inhibition of T. gondii proliferation in vitro), extrapolated

melting point [°C]	SMILES	IC50 against proliferation of Toxoplasma gondii (Toxoplasma gondii) [µg/mL]	fold more potent than sulfadiazine (Toxoplasma gondii)	CC30 (concentration required for 30% cells proliferation inhibition) (L929 cells)	viability at 24 h, 3.91 µg/mL [1] [%]	viability at 24 h, 7.81 µg/mL [1] [%]	viability at 24 h, 15.63 µg/mL [1] [%]	viability at 24 h, 31.25 µg/mL [1] [%]	viability at 24 h, 62.5 µg/mL [1] [%]	viability at 24 h, 125 µg/mL [1] [%]	viability at 24 h, 250 µg/mL [1] [%]	viability at 24 h, 500 µg/mL [1] [%]	IC50 (T. gondii RH tachyzoites; [2]) [µg/mL]	IC50 (T. gondii RH tachyzoites; [3]) [µg/mL]
191 to 192	Cc1nc[nH]c1C(=O)NNC(=S)Nc1cccc(F)c1 [Compound 11, 4-(3-Fluorophenyl)-1-(4-methylimidazol-5-oyl)thiosemicarbazide]	–	–	95.50 µg/mL	104	101	99.8	92.7	75.6	66	57.8	46.3	~118 (≈ 402 µM)	–
223 to 225	COc1ccc(NC(=S)NNC(=O)c2[nH]cnc2C)cc1OC [Compound 13, 4-(3,4-Dimethoxyphenyl)-1-(4-methylimidazol-5-oyl)thiosemicarbazide]	–	–	>500.00 µg/mL and >500 µg/mL	107	105	103	99.8	97.5	95.7	94.2	77	–	~175 (≈ 522 µM)
213 to 215	Cc1ccc(NC(=S)NNC(=O)c2[nH]cnc2C)cc1Cl [Compound 14, 4-(3-Chloro-4-methylphenyl)-1-(4-methylimidazol-5-oyl)thiosemicarbazide]	–	–	28.18 µg/mL	101	91.5	76.6	67.5	61.5	49.3	21.1	10.4	18.6 (≈ 57.5 µM)	–
193 to 195	Cc1cccc(NC(=S)NNC(=O)c2[nH]cnc2C)c1 [Compound 17, 1-(4-Methylimidazol-5-oyl)-4-(3-methylphenyl)thiosemicarbazide]	–	–	50.12 µg/mL	94.1	88.7	85.7	74.8	64.9	56.5	50	40.7	37.1 (≈ 128 µM)	–

Continued, compound first:

SMILES	melting point [°C]	IC50 against proliferation of Toxoplasma gondii (Toxoplasma gondii) [µg/mL]	fold more potent than sulfadiazine (Toxoplasma gondii)	CC30 (concentration required for 30% cells proliferation inhibition) (L929 cells)	viability at 24 h, 3.91 µg/mL [1] [%]	viability at 24 h, 7.81 µg/mL [1] [%]	viability at 24 h, 15.63 µg/mL [1] [%]	viability at 24 h, 31.25 µg/mL [1] [%]	viability at 24 h, 62.5 µg/mL [1] [%]	viability at 24 h, 125 µg/mL [1] [%]	viability at 24 h, 250 µg/mL [1] [%]	viability at 24 h, 500 µg/mL [1] [%]	IC50 (T. gondii RH tachyzoites; [2]) [µg/mL]	IC50 (T. gondii RH tachyzoites; [3]) [µg/mL]
O=C(NNC(=S)Nc1ccc(F)cc1)c1cccs1 [Compound 1]	–	33.17	at least 15 fold	–	–	–	–	–	–	–	–	–	–	–
Cc1ccccc1NC(=S)NNC(=O)c1[nH]cnc1C [Compound 16, 1-(4-Methylimidazol-5-oyl)-4-(2-methylphenyl)thiosemicarbazide]	210 to 212	–	–	288.40 µg/mL	103	102	100	93.8	91.2	79.7	71.5	63.4	–	~150 (≈ 519 µM)
Cc1nc[nH]c1C(=O)NNC(=S)Nc1ccc(N(C)C)cc1 [Compound 19, 1-(4-Methylimidazol-5-oyl)-4-(4-dimethyloaminophenyl)thiosemicarbazide]	215 to 217	–	–	112.20 µg/mL	93.1	91.8	85.7	80.8	78.6	68.5	60.8	53.3	–	~165 (≈ 517 µM)
CCN(CC)c1ccc(NC(=S)NNC(=O)c2[nH]cnc2C)cc1 [Compound 20, 1-(4-Methylimidazol-5-oyl)-4-(4-diethyloaminophenyl)thiosemicarbazide]	225 to 227	–	–	63.10 µg/mL	102	93.6	85.7	71.3	67.9	66	53.4	12.9	25.7 (≈ 74.2 µM)	–
Cc1nc[nH]c1C(=O)NNC(=S)Nc1c(C(C)C)cccc1C(C)C [Compound 22, 4-(2,6-Diisopropylphenyl)-1-(4-methylimidazol-5-oyl)thiosemicarbazide]	202 to 204	–	–	190.55 µg/mL	116	110	101	80.7	79.8	76.6	68.2	58.8	97.7 (≈ 272 µM)	–
Nc1ccc(S(=O)(=O)Nc2ncccn2)cc1 [Sulfadiazine, 4-amino-N-(2-pyrimidinyl)benzenesulfonamide, reference compound]	–	> 500	–	1251.12 µg/mL	–	–	–	–	–	–	–	–	–	~2720 (≈ 10900 µM)
